The results in this text go back to ChEMBL document CHEMBL1154528, “Discovery of a novel series of quinoxalines as inhibitors of c-Met kinase” (Bioorg Med Chem Lett, 2009).

A short description of test [1]: Inhibition of Flt at 10 uM. Details: scale not given: the % may be the effect or the level left.
Test [2] deals with Vascular endothelial growth factor receptor 2 (Homo sapiens) (UniProt P35968). Put plainly: Inhibition of KDR at 10 uM. Further details: scale not given: the % may be the effect or the level left.

SMILES strings stand for the structures. Where only a bound is given, the exact number is not on record here.

Sequence of Vascular endothelial growth factor receptor 2 (Homo sapiens) (P35968 whole entry): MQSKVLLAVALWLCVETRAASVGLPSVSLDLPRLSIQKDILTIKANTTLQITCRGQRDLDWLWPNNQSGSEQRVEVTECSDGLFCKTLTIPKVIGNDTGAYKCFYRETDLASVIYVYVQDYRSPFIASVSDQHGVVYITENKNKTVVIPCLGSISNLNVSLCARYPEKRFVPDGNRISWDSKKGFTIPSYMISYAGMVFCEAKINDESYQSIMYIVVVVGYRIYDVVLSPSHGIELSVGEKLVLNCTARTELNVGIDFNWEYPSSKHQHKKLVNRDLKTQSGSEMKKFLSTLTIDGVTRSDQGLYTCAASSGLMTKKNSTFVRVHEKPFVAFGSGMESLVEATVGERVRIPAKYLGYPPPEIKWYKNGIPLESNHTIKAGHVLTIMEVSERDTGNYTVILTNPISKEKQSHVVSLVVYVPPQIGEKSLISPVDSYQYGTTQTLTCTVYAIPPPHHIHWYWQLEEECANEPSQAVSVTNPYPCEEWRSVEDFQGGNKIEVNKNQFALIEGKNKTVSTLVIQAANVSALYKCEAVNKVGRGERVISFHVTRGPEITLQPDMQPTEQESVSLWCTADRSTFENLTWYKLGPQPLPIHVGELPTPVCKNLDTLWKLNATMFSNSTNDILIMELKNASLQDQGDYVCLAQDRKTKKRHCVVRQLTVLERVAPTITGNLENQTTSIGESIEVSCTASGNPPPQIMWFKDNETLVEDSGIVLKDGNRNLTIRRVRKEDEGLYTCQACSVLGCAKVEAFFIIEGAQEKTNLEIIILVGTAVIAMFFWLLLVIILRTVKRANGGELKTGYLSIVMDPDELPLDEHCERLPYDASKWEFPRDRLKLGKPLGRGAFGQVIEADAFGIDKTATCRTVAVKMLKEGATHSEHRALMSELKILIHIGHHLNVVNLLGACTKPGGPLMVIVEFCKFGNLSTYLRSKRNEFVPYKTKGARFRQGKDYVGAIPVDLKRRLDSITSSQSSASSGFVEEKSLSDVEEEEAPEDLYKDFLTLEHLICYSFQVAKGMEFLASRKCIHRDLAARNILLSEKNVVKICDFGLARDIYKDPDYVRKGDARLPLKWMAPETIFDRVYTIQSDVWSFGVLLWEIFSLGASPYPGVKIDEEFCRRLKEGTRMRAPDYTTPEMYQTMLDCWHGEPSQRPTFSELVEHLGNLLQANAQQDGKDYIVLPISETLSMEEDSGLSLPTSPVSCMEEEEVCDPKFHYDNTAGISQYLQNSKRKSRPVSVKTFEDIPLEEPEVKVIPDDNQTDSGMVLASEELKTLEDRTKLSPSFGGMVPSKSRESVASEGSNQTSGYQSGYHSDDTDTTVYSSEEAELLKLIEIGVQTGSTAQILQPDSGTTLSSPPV

`CN1CCN(c2cnc3cc(C(F)(F)F)cc(-c4ccccc4)c3n2)CC1`: the Activity in test [1] and in test [2] was less than 30% throughout.
